Several values for one entry are separate records, joined by “and”; a condition that tells them apart may be missing. Equal entries are not always repeated. Structures can show the parent of a compound that is named as a salt. Where two headings read alike, the source gives them in different places.

The target in this test is T1, His6-AspH315–758 (human aspartate/asparagine-β-hydroxylase, AspH) (Homo sapiens, UniProt Q12797).
T1 construct: N-Terminally His6-tagged human AspH315–758 (His6-AspH315–758) was produced in E. coli BL21 (DE3) cells; made in house; host or cells: E. coli BL21 (DE3), pET-28a(+) vector
T1 sequence (Q12797 315-758): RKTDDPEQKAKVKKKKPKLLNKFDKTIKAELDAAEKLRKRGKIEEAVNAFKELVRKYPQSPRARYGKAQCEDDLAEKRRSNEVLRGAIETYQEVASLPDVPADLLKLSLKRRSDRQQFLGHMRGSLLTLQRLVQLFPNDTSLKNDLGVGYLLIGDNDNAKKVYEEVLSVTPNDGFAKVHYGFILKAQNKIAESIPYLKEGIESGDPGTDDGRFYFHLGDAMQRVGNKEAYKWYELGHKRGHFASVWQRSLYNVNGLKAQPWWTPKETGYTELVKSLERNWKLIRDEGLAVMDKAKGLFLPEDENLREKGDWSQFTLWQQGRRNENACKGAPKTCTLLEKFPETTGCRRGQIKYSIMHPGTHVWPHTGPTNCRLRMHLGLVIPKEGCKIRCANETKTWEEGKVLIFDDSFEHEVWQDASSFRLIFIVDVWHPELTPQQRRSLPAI
Kind of test: SPE-MS AspH inhibition assay (LOPAC screen at fixed 20 μM and IC50 dose-response), hydroxylation of cyclic peptide hFX-CP101–119. It counts as biochemical. The conditions noted are these: for Plate 5 (% inhibition) / Plate 5 (% conversion): plate 5 (Pfitzer), test compounds at fixed 20 μM; for Plate 5 (% conversion): mean conversion DMSO 32.88; for IC50: read-out: IC50; for inhibition at 20 µM: read-out: Plate 2 (% inhibition).

[1] abbreviates: LOPAC compound at 20uM, plate 2, conversion of substrate peptide.
Where [2] appears, read: LOPAC compound at 20uM, plate 2, normalised to DMSO and 2,4-PDCA controls.
The mark [3] stands for this setting: LOPAC compound at fixed 20 uM, plate 1, normalised to DMSO and 2,4-PDCA controls.
The mark [4] stands for this setting: LOPAC compound at fixed 20 uM, substrate conversion, plate 1.
Where [5] appears, read: LOPAC Plate 4, compound at 20 uM, substrate conversion.
The mark [6] stands for this setting: 50 nM His6-AspH315–758, 1.0 μM hFX-CP101–119, 3 μM 2OG, 2 μM Fe(II), 50 mM HEPES pH 7.5, 20 °C, mean ± SD, n = 2 (2,4-PDCA n = 10).
The mark [7] stands for this setting: LOPAC compound at 20uM, plate 3, conversion of substrate peptide.

Take `CC(=O)O[C@H]1C[C@@]2(C)[C@@H](C[C@@H](O)[C@H]3[C@@]4(C)CC[C@@H](O)[C@@H](C)[C@@H]4CC[C@@]32C)/C1=C(\CCC=C(C)C)C(=O)[O-].[Na+]` [Fusidic acid sodium]: the “Plate 2 (% conversion)” value under setting [1] is recorded as 40.54%. The “Plate 2 (% inhibition)” value under setting [2] is -13.68%.
Take `NCCCC(=O)O` [GABA]: under setting [3], the “Plate 1 (% inhibition)” value is listed as -1.98%. In addition, under setting [4], the “Plate 1 (% conversion)” value is 36.54%.
As for `CN(C)c1ccccc1CN1CCCN(Cc2ccccc2N(C)C)C1c1ccncc1` [GANT61], the % inhibition – broadly, the change of the read-out against control, counted positive when it falls – (LOPAC Plate 4, compound at 20 uM) is reported as -13.34%. Besides, the “% conversion” value under setting [5] turned out to be 41.02%.
As for `Cl.Cl.Fc1ccc(C(OCCN2CCN(CCCc3ccccc3)CC2)c2ccc(F)cc2)cc1` [GBR-12909 dihydrochloride], under setting [1], the “Plate 2 (% conversion)” value is on record as 51.05%. Besides, the “Plate 2 (% inhibition)” value under setting [2] was -45.09%.
As for `Cl.Cl.c1ccc(CCCN2CCN(CCOC(c3ccccc3)c3ccccc3)CC2)cc1` [GBR-12935 dihydrochloride], the “Plate 2 (% conversion)” value was 46.64%. In addition, the “Plate 2 (% inhibition)” value (20 µM) was -31.91%.
Turning to `NC(N)=Nc1ccc2[nH]c3c(c2c1)C[C@@]1(O)[C@H]2Cc4ccc(O)c5c4[C@@]1(CCN2CC1CC1)[C@H]3O5.O=C(O)C(F)(F)F.O=C(O)C(F)(F)F` [GNTI, Guanidinyl-naltrindole di-trifluoroacetate, reference compound], the “Plate 2 (% conversion)” value is given as 1.92%. Besides, the Inhibition (commonly the change of the read-out against control, counted positive when it falls) at 20 µM [%] (20 µM) is 100% and 101.7%. For the same compound, under “pH 7.5”, the “IC50 [μM]” value is “inactive”.
As to `Br.Br.CN(C)CCCc1cc(C(=O)Nc2ccc(-c3ccncc3)cc2)ccc1O` [GR 55562 dihydrobromide], the “Plate 2 (% conversion)” value under setting [1] stood at 31.31%. In addition, the “Plate 2 (% inhibition)” value under setting [2] worked out at 13.87%.
As to `OC[C@H]1O[C@@H](n2cnc3c(N[C@H]4CCC[C@@H]4O)ncnc32)[C@H](O)[C@@H]1O` [GR 79236X], under setting [3], the “Plate 1 (% inhibition)” value is given as -7.17%. The “Plate 1 (% conversion)” value under setting [4] is reported as 38.28%.
The corresponding values for `Cn1cc(C(=O)OCC2CCN(CCNS(C)(=O)=O)CC2)c2ccccc21` [GR 113808] are -5.71% and 37.79%.
Consider `O=S(=O)(N[C@H](CO)C(C(F)(F)F)C(F)(F)F)c1ccc(Cl)s1` [GSI-953], for which the “Plate 5 (% inhibition)” value amounted to 5.55% and the “Plate 5 (% conversion)” value was determined as 34.43%.
Consider `O=C(O)CCNc1cc(N2CCc3ccccc3CC2)nc(-c2ccccn2)n1` [GSK-J1, reference compound], for which the IC50 – broadly, the concentration at which inhibition is half-maximal – under setting [6] was 12.9 ± 1.05 µM.
Consider `CCOC(=O)CCNc1cc(N2CCc3ccccc3CC2)nc(-c2ccccn2)n1` [GSK-J4, reference compound], for which the “IC50 [μM]” value under setting [6] was “inactive”.
Take `O=C1Nc2ccc(I)cc2/C1=C/c1cc(Br)c(O)c(Br)c1` [GW5074, reference compound]: the “Inhibition at 20 µM [%]” value is 101.1%. In addition, the 50% inhibitory concentration (IC50) (pH 7.5) stood at 2.48 ± 0.14 µM.
Take `CC(C)(Sc1ccc(CCN(CCCCC2CCCCC2)C(=O)NC2CCCCC2)cc1)C(=O)O` [GW7647]: under setting [1], the “Plate 2 (% conversion)” value was determined as 29.96%. The inhibition (commonly the change of the read-out against control, counted positive when it falls) at 20 µM under setting [2] turned out to be 17.9%.
The like results for `O=C(O)CCc1ccc(NCc2cccc(Oc3ccccc3)c2)cc1` [GW9508] were, in that order, 35.17% and 2.34%.
`CC1=NN=C(c2ccc(N)cc2)c2cc3c(cc2C1)OCO3.Cl` [GYKI 52466 hydrochloride]: the “Plate 2 (% conversion)” value is listed as 38.91%. In addition, the “Plate 2 (% inhibition)” value under setting [2] was -8.84%.
Consider `Cl.NC1C=CC=C(C(=O)O)C1` (centres unmarked) [Gabaculine hydrochloride], for which the “Plate 1 (% conversion)” value is on record as 33.90% and the “Plate 1 (% inhibition)” value came to 5.88%.
As to `CC[N+](CC)(CC)CCOc1cccc(OCC[N+](CC)(CC)CC)c1OCC[N+](CC)(CC)CC` [Gallamine triethiodide], the “Plate 2 (% conversion)” value under setting [1] is listed as 33.88%. For the same compound, the inhibition at 20 µM under setting [2] amounted to 6.21%.
For `CC(=O)[C@H]1CC[C@H]2[C@@H]3CC[C@H]4C[C@](C)(O)CC[C@]4(C)[C@H]3CC[C@]12C` [Ganaxolone], the “Plate 2 (% conversion)” value is given as 36.34% and the inhibition at 20 µM is -1.16%.
On to `Nc1nc(O)c2ncn(COC(CO)CO)c2n1` [Ganciclovir], for which the “Plate 2 (% conversion)” value under setting [1] was 35.57%. For the same compound, under setting [2], the inhibition at 20 µM came to 1.14%.
For `Nc1ccn([C@@H]2O[C@H](CO)[C@@H](O)C2(F)F)c(=O)n1` [Gemcitabine hydrochloride], the “Plate 1 (% inhibition)” value under setting [3] was 11.04%. Moreover, the “Plate 1 (% conversion)” value under setting [4] stood at 32.17%.
Regarding `COC(=O)C1=CO[C@@H](O)[C@@H]2C(CO)=CC[C@H]12` [Genipin], the “Plate 2 (% conversion)” value under setting [1] is reported as 36.58%. Moreover, the inhibition at 20 µM under setting [2] is -1.85%.
The like results for `O=c1c(-c2ccc(O)cc2)coc2cc(O)cc(O)c12` [Genistein] were, in that order, 19.78% and 48.3%.
Take `CCOc1ncc(S(=O)(=O)N2CCN(CC)CC2)cc1-c1nc2c(CC)n(CCOC)nc2c(=O)[nH]1.O=S(=O)(O)c1ccccc1` [Gisadenafil besylate salt]: the “Plate 1 (% conversion)” value is 43.96% and the “Plate 1 (% inhibition)” value is recorded as -24.07%.
With `CCOc1ncc(S(=O)(=O)N2CCN(CC)CC2)cc1-c1nc2c(CC)n(CCOC)nc2c(=O)[nH]1` [Gisadenafil], the “Plate 5 (% inhibition)” value is recorded as 10.85% and the “Plate 5 (% conversion)” value is listed as 32.62%.
As to `Cc1cnc(C(=O)NCCc2ccc(S(=O)(=O)NC(=O)NC3CCCCC3)cc2)cn1` [Glipizide], under setting [2], the inhibition at 20 µM is -8.88%.
`Cc1cc2c(C(C)C)c(O)c(O)c(C=O)c2c(O)c1-c1c(C)cc2c(C(C)C)c(O)c(O)c(C=O)c2c1O` [Gossypol]: the “Plate 3 (% conversion)” value is reported as 4.73%.
`CN1C2CCCC1CC(NC(=O)c1nn(C)c3ccccc13)C2` (centres unmarked) [Granisetron hydrochloride]: the “% conversion” value under setting [5] was found to be 34.30%.
Take `N=C(N)N/N=C/c1c(Cl)cccc1Cl` [Guanabenz acetate]: the “Plate 2 (% conversion)” value under setting [1] is on record as 34.67%. Moreover, the inhibition at 20 µM under setting [2] amounted to 3.85%.
In the case of `CNCCNS(=O)(=O)c1cccc2cnccc12.Cl.Cl` [H-8 dihydrochloride], under setting [7], the “Plate 3 (% conversion)” value worked out at 37.53%.
For the compound `CCCCC#Cc1nc(NC)c2ncn([C@@H]3O[C@H](CO)[C@@H](O)[C@H]3O)c2n1` [HEMADO], the “Plate 1 (% inhibition)” value under setting [3] stood at 20.82%. For the same compound, the “Plate 1 (% conversion)” value under setting [4] is reported as 28.88%.
For `Cc1nccc2c1[nH]c1ccccc12` [Harmane], the “Plate 2 (% conversion)” value is listed as 35.31% and the inhibition at 20 µM came to 1.92%.
The corresponding values for `C[N+](C)(C)CCCCCC[N+](C)(C)C` [Hexamethonium bromide] are 40.56% and -13.8%.
In the case of `C[N+](C)(C)CCCCCC[N+](C)(C)C.[Cl-].[Cl-]` [Hexamethonium dichloride], the “Plate 2 (% conversion)” value is listed as 37.53%. For the setting “20 µM”, the “Plate 2 (% inhibition)” value is on record as -4.72%.
With `O=c1cc(O)cc(/C=C/c2ccc(O)c(O)c2)o1` [Hispidin, reference compound], under setting [1], the “Plate 2 (% conversion)” value was 3.05%. Moreover, the inhibition at 20 µM under setting [2] came to 98.3%.
The like results for `NCCc1c[nH]cn1` [Histamine dihydrochloride] were, in that order, 39.28% and -9.92%.
As to `NNc1nncc2ccccc12` [Hydralazine hydrochloride], the “Plate 2 (% conversion)” value under setting [1] came to 38.20%. In addition, the inhibition at 20 µM under setting [2] was -6.7%.
The like results for `NS(=O)(=O)c1cc2c(cc1Cl)NCNS2(=O)=O` [Hydrochlorothiazide] were, in that order, 36.43% and -1.41%.
The like results for `C[C@]12CCC(=O)C=C1CC[C@@H]1[C@@H]2[C@@H](O)C[C@@]2(C)[C@H]1CC[C@]2(O)C(=O)CO` [Hydrocortisone] were, in that order, 37.93% and -5.89%.
For `Cl.NO` [Hydroxylamine hydrochloride], the “Plate 2 (% conversion)” value under setting [1] is 39.20%. Also, under setting [2], the “Plate 2 (% inhibition)” value is -9.70%.
Consider `NC(=O)NO` [Hydroxyurea], for which the “Plate 2 (% conversion)” value under setting [1] was 37.94%. The “Plate 2 (% inhibition)” value under setting [2] is on record as -5.92%.
As to `CNC(=O)[C@H]1O[C@@H](n2cnc3c(NCc4cccc(I)c4)ncnc32)[C@H](O)[C@@H]1O` [IB-MECA], the “Plate 3 (% conversion)” value under setting [7] is reported as 35.04%.
As for `COc1cc(OC)c(C=C2C(O)=Nc3ccccc32)c(OC)c1` [IC 261], the “% conversion” value is 29.42%.
In the case of `CCCn1c(=O)c(C)cn2nc(N)nc12` [ICI 63,137], the “% conversion” value amounted to 30.53%.

The record behind these values is PMC7251097, “Aspartate/asparagine-β-hydroxylase: a high-throughput mass spectrometric assay for discovery of small molecule inhibitors” (Scientific Reports, 2020).
